Data taken from paper PMC7586456 (ACS Pharmacology & Translational Science, 2020).

Test system: SARS CoV-2 (USA_WA1/2020)

Structure (SMILES)	rescue of SARS-CoV-2 CPE (in words)
CC(CN(C)C)CN1c2ccccc2CCc2ccccc21 (stereo not shown) [trimipramine]	protected against SARS-CoV-2 induced CPE, but to lesser degrees than cepharanthine
CCN1CCN(Cc2ccc(Nc3ncc(F)c(-c4cc(F)c5nc(C)n(C(C)C)c5c4)n3)nc2)CC1 [abemaciclib]	protected against SARS-CoV-2 induced CPE, but to lesser degrees than cepharanthine
CC1=C[C@]23C(=O)[C@@H](C=C(CO)[C@@H](O)[C@]2(O)[C@H]1O)[C@H]1[C@@H](C[C@H]3C)C1(C)C [ingenol]	protected against SARS-CoV-2 induced CPE, but to lesser degrees than cepharanthine
C=CC(=O)Nc1cc(Nc2nccc(-c3cn(C)c4ccccc34)n2)c(OC)cc1N(C)CCN(C)C [osimertinib]	protected against SARS-CoV-2 induced CPE, but to lesser degrees than cepharanthine
